This note sets out measurements from paper PMC7832085 (Journal of medicinal chemistry, 2016).

For one assay, the target named is T1, recombinant human TDP2 (Homo sapiens, UniProt O95551).
T1 sequence (O95551 1-362): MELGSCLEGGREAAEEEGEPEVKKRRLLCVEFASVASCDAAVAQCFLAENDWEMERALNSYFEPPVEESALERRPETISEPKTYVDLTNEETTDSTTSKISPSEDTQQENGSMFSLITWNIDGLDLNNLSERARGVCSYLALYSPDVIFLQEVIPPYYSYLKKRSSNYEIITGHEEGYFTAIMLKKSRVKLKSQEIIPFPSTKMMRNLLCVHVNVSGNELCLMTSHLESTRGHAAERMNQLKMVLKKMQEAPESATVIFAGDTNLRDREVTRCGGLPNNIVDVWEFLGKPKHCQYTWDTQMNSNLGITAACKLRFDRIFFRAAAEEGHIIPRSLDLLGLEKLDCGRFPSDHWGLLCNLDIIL
Nature of the assay: Recombinant TDP2 assay. The class given is biochemical. The following applies: for Inhibition of recombinant TDP2 (in words): recombinant human TDP2, concentrations up to 111 μM.

The subject of the next assay is hTDP2 DT40 cells. The class given is cell-based. The following applies: different concentrations of EPT.
For another assay, the target named is TDP1 (Homo sapiens, UniProt Q9NUW8). Put plainly: TDP1 counter assay. The class given is biochemical. The following applies: highest testing concentration 111 μM.
Sequence of TDP1 (Q9NUW8 whole entry): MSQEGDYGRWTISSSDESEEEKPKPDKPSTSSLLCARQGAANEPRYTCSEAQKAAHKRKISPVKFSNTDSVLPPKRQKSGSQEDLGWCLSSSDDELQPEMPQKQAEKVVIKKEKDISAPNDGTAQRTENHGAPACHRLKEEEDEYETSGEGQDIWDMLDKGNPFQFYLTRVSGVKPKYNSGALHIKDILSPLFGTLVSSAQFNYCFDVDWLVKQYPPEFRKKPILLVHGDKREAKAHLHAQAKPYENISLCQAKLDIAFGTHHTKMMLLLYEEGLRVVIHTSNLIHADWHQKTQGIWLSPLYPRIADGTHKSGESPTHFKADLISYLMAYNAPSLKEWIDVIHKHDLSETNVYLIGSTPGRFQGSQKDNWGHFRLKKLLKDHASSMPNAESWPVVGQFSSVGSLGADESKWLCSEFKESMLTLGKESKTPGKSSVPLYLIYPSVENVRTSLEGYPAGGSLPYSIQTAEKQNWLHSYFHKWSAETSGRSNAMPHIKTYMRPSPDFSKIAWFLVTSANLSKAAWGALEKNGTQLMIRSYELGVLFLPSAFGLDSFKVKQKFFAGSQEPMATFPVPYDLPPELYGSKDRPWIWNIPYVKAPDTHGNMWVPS
Assay [1] concerns the target T2, human TDP2 (hTDP2) whole cell extracts (Homo sapiens, UniProt O95551).
T2 sequence (O95551 1-362): T1 sequence (O95551 1-362)
Nature of the assay: Whole cell extract. The format is biochemical.

Molecules are shown by their SMILES.

In general, IC50 refers to the concentration that gives 50% inhibition. Take `O=C1Cc2cc(-c3ccco3)ccc2C(=O)N1` [Compound 43, 6-(Furan-2-yl)isoquinoline-1,3 (2H,4H)-dione]: the IC50 on recombinant human TDP2 was 8.5 µM. Also, in the assay on hTDP2 DT40 cells, the “Synergy in combination with ETP” value is given as “not observed”. In addition, at TDP1, the “Inhibition of TDP1 (counter assay)” value is given as “no inhibition”. For the molecule `O=C1Cc2cc(I)ccc2C(=O)N1` [Compound 36, 6-Iodoisoquinoline-1,3(2H,4H)-dione], the “Synergy in combination with ETP” value in the assay on hTDP2 DT40 cells was “not observed”.

Take `O=C1Cc2cc(-c3nc4ccccc4s3)ccc2C(=O)N1` [Compound 84]: the “Synergy in combination with ETP” value in the assay with hTDP2 DT40 cells is reported as “not observed”. With `O=C1Cc2cccc(-c3cccc([N+](=O)[O-])c3)c2C(=O)N1` [Compound 57, 8-(3-Nitrophenyl)isoquinoline-1,3(2H,4H)-dione], the “Inhibition of recombinant TDP2 (in words)” value at recombinant human TDP2 is “substantially reduced inhibitory activity”.

`O=C1Cc2ccc(C(=O)O)cc2C(=O)N1` [Compound 40, 1,3-Dioxo-1,2,3,4-tetrahydroisoquinoline-7-carboxylic Acid]: the “Synergy in combination with ETP” value in the assay on hTDP2 DT40 cells is “not observed”. As to `O=C1Cc2c(cccc2-c2ccco2)C(=O)N1` [Compound 45, 5-(Furan-2-yl)isoquinoline-1,3(2H,4H)-dione], on recombinant human TDP2, the “Inhibition of recombinant TDP2 (in words)” value was “inactive”. On the same count and under the same terms, then `O=C1Cc2c(cccc2-c2cccc([N+](=O)[O-])c2)C(=O)N1` [Compound 58, 5-(3-Nitrophenyl)isoquinoline-1,3(2H,4H)-dione], with “inactive”; and `O=C1Cc2c(Br)cccc2C(=O)N1` [Compound 34, 5-Bromoisoquinoline-1,3(2H,4H)-dione], with “inactive”; and `O=C1Cc2cccc(-c3cccc(O)c3)c2C(=O)N1` [Compound 53, 8-(3-Hydroxyphenyl)isoquinoline-1,3(2H,4H)-dione], with “substantially reduced inhibitory activity”. As for `O=C1Cc2cc(-c3ccco3)ccc2C(=O)N1O` [Compound 46, 6-(Furan-2-yl)-2-hydroxyisoquinoline-1,3(2H,4H)-dione], the “Inhibition of recombinant TDP2 (in words)” value at recombinant human TDP2 was “inactive”. In addition, the “Inhibition of endogenous TDP2 in WCE (in words)” value in assay [1] is “inactive”.
